Test in all cases: relative viability (nuclei count vs DMSO), 5 days (fraction); higher = more cells survive
Compound in the experiment “GSK-J4 + Crizotinib”: CCOC(=O)CCNc1cc(N2CCc3ccccc3CC2)nc(-c2ccccn2)n1 [GSK-J4] + C[C@@H](Oc1cc(-c2cnn(C3CCNCC3)c2)cnc1N)c1c(Cl)ccc(F)c1Cl [Crizotinib] (partner 1 µM)
In outline:
(§1)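 Values are medians from duplicate plates. Each reflects relative viability, defined as the nuclei count of treated wells over that of vehicle wells. Lung cancer cell lines in 1536-well plates were pin-tool dosed one day after seeding with one drug alone or with a fixed anchor-drug dose plus five library-drug doses (not always all listed) in √10 steps, then fixed, stained and imaged at 4× after 5 days.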

Compound in the experiment “GSK-J4 + Luminespib”: CCOC(=O)CCNc1cc(N2CCc3ccccc3CC2)nc(-c2ccccn2)n1 [GSK-J4] + CCNC(=O)c1noc(-c2cc(C(C)C)c(O)cc2O)c1-c1ccc(CN2CCOCC2)cc1 [Luminespib] (partner 0.01 µM)
In outline:
as §1

Compound in the experiment “GSK-J4 + Pemetrexed”: CCOC(=O)CCNc1cc(N2CCc3ccccc3CC2)nc(-c2ccccn2)n1 [GSK-J4] + Nc1nc2[nH]cc(CCc3ccc(C(=O)N[C@@H](CCC(=O)O)C(=O)O)cc3)c2c(=O)[nH]1 [Pemetrexed] (partner 0.2 µM)
In outline: as §1

Compound in the experiment “AZ3146 + OSI-027”: CN1CCC(CC1)OC2=CC(=C(C=C2)NC3=NC=C4C(=N3)N(C(=O)N4C)C5CCCC5)OC [AZ3146] + COc1cccc2cc(-c3nc([C@H]4CC[C@H](C(=O)O)CC4)n4ncnc(N)c34)[nH]c12 [OSI-027] (partner 0.5 µM)
In short, it runs like this: as §1

As to PC-14, the relative viability with GSK-J4 + Crizotinib (first compound 0.5 µM) came out at 0.858; with GSK-J4 + Crizotinib (first compound 1.581 µM), 0.896; in the experiment with GSK-J4 + Crizotinib (first compound 5 µM), 0.843; in the experiment with GSK-J4 + Crizotinib (first compound 15.81 µM), 0.842; in the experiment with GSK-J4 + Crizotinib (first compound 50 µM), 0.855; in the experiment with GSK-J4 + Luminespib (first compound 0.5 µM), 0.216. Also, the relative viability with GSK-J4 + Luminespib (first compound 1.581 µM) was determined as 0.159; with GSK-J4 + Luminespib (first compound 5 µM) it was 0.151; with GSK-J4 + Luminespib (first compound 15.81 µM), 0.126; with GSK-J4 + Luminespib (first compound 50 µM) it was 0.125; in the experiment with GSK-J4 + Pemetrexed (first compound 0.5 µM) it was 0.128; with GSK-J4 + Pemetrexed (first compound 1.581 µM), 0.143. Also, the relative viability turned out to be 0.13 with GSK-J4 + Pemetrexed (first compound 5 µM); 0.143 with GSK-J4 + Pemetrexed (first compound 15.81 µM); 0.17 in the experiment with GSK-J4 + Pemetrexed (first compound 50 µM); 0.805 with AZ3146 + OSI-027 (first compound 0.08 µM); 0.784 with AZ3146 + OSI-027 (first compound 0.253 µM); 0.741 in the experiment with AZ3146 + OSI-027 (first compound 0.8 µM). Moreover, the relative viability with AZ3146 + OSI-027 (first compound 2.53 µM) was found to be 0.853; with AZ3146 + OSI-027 (first compound 8 µM) it was 0.185.
For the cell line RERF-LC-KJ, the relative viability with GSK-J4 + Crizotinib (first compound 0.5 µM) came out at 0.709; with GSK-J4 + Crizotinib (first compound 1.581 µM), 0.837; with GSK-J4 + Crizotinib (first compound 5 µM), 0.721; in the experiment with GSK-J4 + Crizotinib (first compound 15.81 µM), 0.872; with GSK-J4 + Crizotinib (first compound 50 µM) it was 0.768; with GSK-J4 + Luminespib (first compound 0.5 µM), 1.23. For the same cell line, the relative viability was found to be 1.17 with GSK-J4 + Luminespib (first compound 1.581 µM); 1.31 with GSK-J4 + Luminespib (first compound 5 µM); 1.12 in the experiment with GSK-J4 + Luminespib (first compound 15.81 µM); 0.584 with GSK-J4 + Luminespib (first compound 50 µM); 0.472 with GSK-J4 + Pemetrexed (first compound 0.5 µM); 0.47 in the experiment with GSK-J4 + Pemetrexed (first compound 1.581 µM). Also, the relative viability with GSK-J4 + Pemetrexed (first compound 5 µM) came to 0.448; in the experiment with GSK-J4 + Pemetrexed (first compound 15.81 µM), 0.44; in the experiment with GSK-J4 + Pemetrexed (first compound 50 µM), 0.442; with AZ3146 + OSI-027 (first compound 0.08 µM), 0.669; with AZ3146 + OSI-027 (first compound 0.253 µM), 0.548; with AZ3146 + OSI-027 (first compound 0.8 µM), 0.571. The relative viability worked out at 0.575 in the experiment with AZ3146 + OSI-027 (first compound 2.53 µM) and 0.398 with AZ3146 + OSI-027 (first compound 8 µM).
In the case of SK-LU-1, the relative viability with GSK-J4 + Crizotinib (first compound 0.5 µM) is 0.756; in the experiment with GSK-J4 + Crizotinib (first compound 1.581 µM), 0.762; in the experiment with GSK-J4 + Crizotinib (first compound 5 µM), 0.725; with GSK-J4 + Crizotinib (first compound 15.81 µM), 0.607; with GSK-J4 + Crizotinib (first compound 50 µM), 0.584; with GSK-J4 + Luminespib (first compound 0.5 µM) it was 0.214. Also, the relative viability with GSK-J4 + Luminespib (first compound 1.581 µM) came out at 0.195; in the experiment with GSK-J4 + Luminespib (first compound 5 µM), 0.166; in the experiment with GSK-J4 + Luminespib (first compound 15.81 µM) it was 0.201; in the experiment with GSK-J4 + Luminespib (first compound 50 µM), 0.212; with GSK-J4 + Pemetrexed (first compound 0.5 µM), 0.931; with GSK-J4 + Pemetrexed (first compound 1.581 µM), 0.877. Besides, the relative viability with GSK-J4 + Pemetrexed (first compound 5 µM) is 0.85; with GSK-J4 + Pemetrexed (first compound 15.81 µM), 0.876; with GSK-J4 + Pemetrexed (first compound 50 µM) it was 0.717; with AZ3146 + OSI-027 (first compound 0.08 µM), 0.358; with AZ3146 + OSI-027 (first compound 0.253 µM) it was 0.326; in the experiment with AZ3146 + OSI-027 (first compound 0.8 µM) it was 0.304. The figures for the relative viability with AZ3146 + OSI-027 (first compound 2.53 µM) and with AZ3146 + OSI-027 (first compound 8 µM) were 0.342 and 0.357, respectively.
As to SK-MES-1, the relative viability turned out to be 0.987 in the experiment with GSK-J4 + Crizotinib (first compound 0.5 µM); 0.977 with GSK-J4 + Crizotinib (first compound 1.581 µM); 0.724 with GSK-J4 + Crizotinib (first compound 5 µM); 0.939 with GSK-J4 + Crizotinib (first compound 15.81 µM); 0.942 with GSK-J4 + Crizotinib (first compound 50 µM); 0.695 with GSK-J4 + Luminespib (first compound 0.5 µM). The relative viability is 0.731 with GSK-J4 + Luminespib (first compound 1.581 µM); 0.718 with GSK-J4 + Luminespib (first compound 5 µM); 0.686 with GSK-J4 + Luminespib (first compound 15.81 µM); 0.37 with GSK-J4 + Luminespib (first compound 50 µM); 0.836 in the experiment with GSK-J4 + Pemetrexed (first compound 0.5 µM); 0.878 with GSK-J4 + Pemetrexed (first compound 1.581 µM). The relative viability with GSK-J4 + Pemetrexed (first compound 5 µM) was found to be 0.882; with GSK-J4 + Pemetrexed (first compound 15.81 µM), 0.808; with GSK-J4 + Pemetrexed (first compound 50 µM) it was 0.508; with AZ3146 + OSI-027 (first compound 0.08 µM) it was 0.659; in the experiment with AZ3146 + OSI-027 (first compound 0.253 µM), 0.621; with AZ3146 + OSI-027 (first compound 0.8 µM) it was 0.568. In addition, the relative viability came to 0.569 with AZ3146 + OSI-027 (first compound 2.53 µM) and 0.452 with AZ3146 + OSI-027 (first compound 8 µM).
As for SW 1573, the relative viability worked out at 0.701 with GSK-J4 + Crizotinib (first compound 0.5 µM); 0.726 with GSK-J4 + Crizotinib (first compound 1.581 µM); 0.832 in the experiment with GSK-J4 + Crizotinib (first compound 5 µM); 0.754 with GSK-J4 + Crizotinib (first compound 15.81 µM); 0.608 in the experiment with GSK-J4 + Crizotinib (first compound 50 µM); 0.199 with GSK-J4 + Luminespib (first compound 0.5 µM). The relative viability in the experiment with GSK-J4 + Luminespib (first compound 1.581 µM) stood at 0.0964; with GSK-J4 + Luminespib (first compound 5 µM) it was 0.268; with GSK-J4 + Luminespib (first compound 15.81 µM), 0.213; with GSK-J4 + Luminespib (first compound 50 µM) it was 0.148; in the experiment with GSK-J4 + Pemetrexed (first compound 0.5 µM), 0.81; in the experiment with GSK-J4 + Pemetrexed (first compound 1.581 µM), 0.804. Besides, the relative viability came out at 0.768 in the experiment with GSK-J4 + Pemetrexed (first compound 5 µM); 0.756 with GSK-J4 + Pemetrexed (first compound 15.81 µM); 0.375 with GSK-J4 + Pemetrexed (first compound 50 µM); 0.678 with AZ3146 + OSI-027 (first compound 0.08 µM); 0.633 with AZ3146 + OSI-027 (first compound 0.253 µM); 0.453 with AZ3146 + OSI-027 (first compound 0.8 µM). For the same cell line, the relative viability came out at 0.662 with AZ3146 + OSI-027 (first compound 2.53 µM) and 0.204 with AZ3146 + OSI-027 (first compound 8 µM).
Consider UMC-11, for which the relative viability amounted to 0.601 in the experiment with GSK-J4 + Crizotinib (first compound 0.5 µM); 0.557 with GSK-J4 + Crizotinib (first compound 1.581 µM); 0.702 with GSK-J4 + Crizotinib (first compound 5 µM); 0.666 with GSK-J4 + Crizotinib (first compound 15.81 µM); 0.509 with GSK-J4 + Crizotinib (first compound 50 µM); 0.996 with GSK-J4 + Luminespib (first compound 0.5 µM). Also, the relative viability with GSK-J4 + Luminespib (first compound 5 µM) was 1.03; with GSK-J4 + Luminespib (first compound 15.81 µM) it was 0.971; in the experiment with GSK-J4 + Luminespib (first compound 50 µM), 0.259; with GSK-J4 + Pemetrexed (first compound 0.5 µM) it was 0.759; in the experiment with GSK-J4 + Pemetrexed (first compound 1.581 µM), 0.667; with GSK-J4 + Pemetrexed (first compound 5 µM), 0.736. In addition, the relative viability with GSK-J4 + Pemetrexed (first compound 15.81 µM) stood at 0.771; in the experiment with GSK-J4 + Pemetrexed (first compound 50 µM) it was 0.649; in the experiment with AZ3146 + OSI-027 (first compound 0.08 µM), 0.462; with AZ3146 + OSI-027 (first compound 0.253 µM), 0.46; with AZ3146 + OSI-027 (first compound 0.8 µM), 0.425; with AZ3146 + OSI-027 (first compound 2.53 µM) it was 0.475. Also, the relative viability in the experiment with AZ3146 + OSI-027 (first compound 8 µM) came out at 0.314.

The values are drawn from the supplement of paper PMC10307832.
